Results from publication PMC12292835, “Amylin Receptor 1 Mutagenesis Revealed a Potential Role of Calcitonin Serine 29 in Receptor Interaction” (Biomedicines, 2025).
Where a SMILES comes first, the peptide text is derived from it. The star is where a group is joined. FITC = O=C1OC2(c3ccc(O)cc3Oc3cc(O)ccc32)c2ccc(NC(=S)*)cc21

Assays:
[1] = target: T1, amylin receptor 1 ECD with calcitonin receptor N124D mutation (Homo sapiens, UniProt O60894+P30988, N124D); assay: FP saturation binding, N124D; settings: for Average fluorescence intensity change upon receptor ECD binding: % of a free probe intensity, Mean ± S.D., max receptor 3 μM (sCT), 1 μM (AC413); for effect of mutation on binding affinity: compared with N124A, in words
T1 construct: pHLsec/hRAMP1.24–111-(GSA)3-hCTR.34–141.N124D-H6 (D-pJS006); H6 (hexahistidine) (C); made in house; host or cells: HEK293 (transient transfection, secreted, N-glycosylated)
T1 sequence (O60894 24-111): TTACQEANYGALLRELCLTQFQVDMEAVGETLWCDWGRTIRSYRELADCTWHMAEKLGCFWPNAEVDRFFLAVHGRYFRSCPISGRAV
T1 sequence (P30988 34-141 N124D): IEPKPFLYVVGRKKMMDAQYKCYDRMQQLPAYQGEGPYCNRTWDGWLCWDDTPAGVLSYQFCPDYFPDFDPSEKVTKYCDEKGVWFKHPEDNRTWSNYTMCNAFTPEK
Description: (§1) pHLsec-based vectors were used to express wild-type and mutated amylin receptor 1 extracellular domains as secreted proteins to cell culture media. The plasmid DNA construct of the wild-type amylin receptor 1 extracellular domain, pHLsec/hRAMP1.24–111-(GSA)3-hCTR.34–141-H6 (H-pSL005) was previously described. The following DNA vector plasmids were made for this study: pHLsec/hRAMP1.24–111-(GSA)3-hCTR.34–141.D97A-H6 (D-pSL009), pHLsec/hRAMP1.24–111-(GSA)3-hCTR.34–141.D97E-H6 (D-pJS001), pHLsec/hRAMP1.24–111-(GSA)3-hCTR.34–141.D101A-H6 (D-pJJ003), pHLsec/hRAMP1.24–111-(GSA)3-hCTR.34–141.D101E-H6 (D-pJJ002), pHLsec/hRAMP1.24–111-(GSA)3-hCTR.34–141.E123A-H6 (D-pJJ004), pHLsec/hRAMP1.24–111-(GSA)3-hCTR.34–141.E123D-H6 (D-pJJ001), pHLsec/hRAMP1.24–111-(GSA)3-hCTR.34–141.N124A-H6 (D-pJS005), pHLsec/hRAMP1.24–111-(GSA)3-hCTR.34–141.N124D-H6 (D-pJS006), pHLsec/hRAMP1.24–111-(GSA)3-hCTR.34–141.N135A-H6 (D-pJW001), and pHLsec/hRAMP1.24–111-(GSA)3-hCTR.34–141.N135D-H6 (D-pJS002). The mutations were introduced to the calcitonin receptor extracellular domain by using DNA Assembly reaction. Coding sequences of the receptor expression vectors were confirmed with Sanger sequencing by Bionics (Seoul, Republic of Korea). DNA plasmid vectors were extracted and were purified from bacterial cells with NucleoBond® Extra Midi Plus kit (Macherey-Nagel, Germany). The purified DNA vectors were stored at −20 °C until their use for mammalian cell transfection.
(§2) The overall experimental procedure of reconstituting the functional amylin receptor 1 extracellular domain (ECD) as the fusion protein of RAMP1 ECD and the calcitonin receptor ECD was previously described. The wild-type and mutated amylin receptor 1 ECDs were expressed from HEK293 cells with transient transfection with polyethylenimine. The expressed receptor proteins were secreted to cell culture media for 4 days at 37 °C. The media were collected for the receptor protein purification. Initial dialysis was performed with the dialysis buffer (Tris 25 mM (pH 7.4), NaCl 150 mM, and imidazole 10 mM) overnight. […] Then, a size exclusion column chromatography (SEC) was performed with SEC column (Cytiva, HiLoad® 16/600 Superdex® 200 pg) and SEC buffer (Tris 50 mM (pH 7.4), NaCl 150 mM, and glycerol (v/v) 10%) as previously described. As the final step, the purified receptor proteins were dialyzed to storage buffer (HEPES 25 mM (pH 7.4), NaCl 150 mM, and glycerol (v/v) 50 %) and were stored at −60 °C until their use for the receptor–ligand binding assay. All purification procedures were performed at 4 °C.
Two peptide probes labeled with fluorescein isothiocyanate (FITC) were used for this study: FITC-labeled salmon calcitonin (sCT) fragment(22–32) and FITC-labeled AC413(6–25) with Y25P mutation. These peptide probes were custom-synthesized from Genscript (Piscataway, NJ, USA). These peptides were used as the probes for the receptor–ligand binding assay. These peptides were HPLC-purified with at least 85% purity by Genscript (Piscataway, NJ, USA). Mass spectrometry performed at Genscript confirmed the correct molecular mass of the synthesized peptides. The extinction coefficient of FITC (63,000 M^−1·cm^−1 at 495 nm, pH 7.0) was used to calculate the concentration of the peptides.
The overall procedure of the FP binding assay with a saturation binding format was previously described. A total of 10 nM FITC-labeled sCT(22–32) and 10 nM FITC-labeled AC413(6–25) with Y25P mutation were used for the receptor–ligand binding assay. For the saturation binding format, the non-linear regression curves were generated by using user-defined equations that were previously described for affinity calculation. FITC-labeled peptide probes were incubated for 1 h at room temperature with the purified receptor protein prior to fluorescence signal measurement. […]

[2] = target: T2, amylin receptor 1 ECD with calcitonin receptor N135D mutation (Homo sapiens, UniProt O60894+P30988, N135D); assay: FP saturation binding, N135D; settings: for Average fluorescence intensity change upon receptor ECD binding: % of a free probe intensity, Mean ± S.D., max receptor 3 μM (sCT), 1 μM (AC413); for effect of mutation on binding affinity: in words
T2 construct: pHLsec/hRAMP1.24–111-(GSA)3-hCTR.34–141.N135D-H6 (D-pJS002); H6 (hexahistidine) (C); made in house; host or cells: HEK293 (transient transfection, secreted, N-glycosylated)
T2 sequence (O60894 24-111): as the sequence (O60894 24-111) above
T2 sequence (P30988 34-141 N135D): as the sequence (P30988 34-141 N124D) above, with D91N, N102D counted along it
Description: as §1
as §2, with “All purification procedures were performed at 4 °C.” left out
(§3) The overall procedure of the FP binding assay with a saturation binding format was previously described. […] FITC-labeled peptide probes were incubated for 1 h at room temperature with the purified receptor protein prior to fluorescence signal measurement. […]

[3] = target: T3, amylin receptor 1 ECD with calcitonin receptor D97E mutation (Homo sapiens, UniProt O60894+P30988, D97E); assay: FP saturation binding, D97E; settings: for Average fluorescence intensity change upon receptor ECD binding: % of a free probe intensity, Mean ± S.D., max receptor 3 μM (sCT), 1 μM (AC413); for effect of mutation on binding affinity: in words
T3 construct: pHLsec/hRAMP1.24–111-(GSA)3-hCTR.34–141.D97E-H6 (D-pJS001); H6 (hexahistidine) (C); made in house; host or cells: HEK293 (transient transfection, secreted, N-glycosylated)
T3 sequence (O60894 24-111): as the sequence (O60894 24-111) above
T3 sequence (P30988 34-141 D97E): as the sequence (P30988 34-141 N124D) above, with D64E, D91N counted along it
Description: as §1
as §2, with “All purification procedures were performed at 4 °C.” left out
as §3

[4] = target: T4, amylin receptor 1 ECD wild-type (WT) (Homo sapiens, UniProt O60894+P30988); assay: FP saturation binding, FITC peptide probes, wild-type amylin receptor 1 ECD; settings: for Average fluorescence intensity change upon receptor ECD binding: % of a free probe intensity, Mean ± S.D., WT, max receptor 3 μM (sCT), 1 μM (AC413)
T4 construct: pHLsec/hRAMP1.24–111-(GSA)3-hCTR.34–141-H6 (H-pSL005); H6 (hexahistidine) (C); made in house; host or cells: HEK293 (transient transfection, secreted, N-glycosylated)
T4 sequence (O60894 24-111): as the sequence (O60894 24-111) above
T4 sequence (P30988 34-141): as the sequence (P30988 34-141 N124D) above, with D91N counted along it
Description: as §1
The overall experimental procedure of reconstituting the functional amylin receptor 1 extracellular domain (ECD) as the fusion protein of RAMP1 ECD and the calcitonin receptor ECD was previously described. The wild-type and mutated amylin receptor 1 ECDs were expressed from HEK293 cells with transient transfection with polyethylenimine. […]
as §3

[5] = target: T5, amylin receptor 1 ECD with calcitonin receptor N135A mutation (Homo sapiens, UniProt O60894+P30988, N135A); assay: FP saturation binding, N135A; settings: for Average fluorescence intensity change upon receptor ECD binding: % of a free probe intensity, Mean ± S.D., max receptor 3 μM (sCT), 1 μM (AC413); for effect of mutation on binding affinity: in words
T5 construct: pHLsec/hRAMP1.24–111-(GSA)3-hCTR.34–141.N135A-H6 (D-pJW001); H6 (hexahistidine) (C); made in house; host or cells: HEK293 (transient transfection, secreted, N-glycosylated)
T5 sequence (O60894 24-111): as the sequence (O60894 24-111) above
T5 sequence (P30988 34-141 N135A): as the sequence (P30988 34-141 N124D) above, with D91N, N102A counted along it
Description: as §1
as §2, with “All purification procedures were performed at 4 °C.” left out
as §3

| Average fluorescence intensity change upon receptor ECD binding [1] | effect of mutation on binding affinity ([1]; listed as AC413 fragment) | Average fluorescence intensity change upon receptor ECD binding [2] | effect of mutation on binding affinity [2] | Average fluorescence intensity change upon receptor ECD binding [3] | Average fluorescence intensity change upon receptor ECD binding [4] | Average fluorescence intensity change upon receptor ECD binding [5] | effect of mutation on binding affinity [5] | effect of mutation on binding affinity ([1]; listed as salmon calcitonin fragment) | stronger affinity of FITC-labeled over non-labeled peptide ([4]; KD 81 nM versus previously reported KI 2.5 μM of non-labeled sCT(22–32)) | Structure (SMILES) | effect of mutation on binding affinity [1] | effect of mutation on binding affinity [3] |
| --- | --- | --- | --- | --- | --- | --- | --- | --- | --- | --- | --- | --- |
| 88 ± 8% | failed to restore the decreased affinity | 85 ± 15% | failed to recover the binding affinity | 68 ± 3% | 67 ± 8% | 87 ± 15% | markedly decreased the binding affinity |  |  | CC(C)C[C@H](NC(=O)[C@H](CCCNC(=N)N)NC(=O)[C@@H](NC(=O)[C@H](CC(C)C)NC(=O)[C@H](Cc1ccccc1)NC(=O)[C@H](CC(N)=O)NC(=O)[C@H](C)NC(=S)Nc1ccc2c(c1)C(=O)OC21c2ccc(O)cc2Oc2cc(O)ccc21)C(C)C)C(=O)N[C@@H](CCC(N)=O)C(=O)N[C@H](C(=O)N[C@@H](Cc1ccc(O)cc1)C(=O)N1CCC[C@H]1C(=O)N[C@@H](CCCNC(=N)N)C(=O)N[C@H](C(=O)N[C@@H](CC(N)=O)C(=O)N[C@H](C(=O)NCC(=O)N[C@@H](C)C(=O)N[C@@H](CC(N)=O)C(=O)N[C@H](C(=O)N1CCC[C@H]1C(N)=O)[C@@H](C)O)C(C)C)[C@@H](C)O)[C@@H](C)O [FITC-AC413(6–25) Y25P] ({FITC}-ANFLVRLQTYPRTNVGANTP-NH2; C-terminus assumed) | failed to restore the decreased binding affinity | not significantly changed |
| 77 ± 5% |  | 99 ± 0.1% | failed to recover the binding affinity | 78 ± 4% | 71 ± 4% | 81 ± 10% | markedly decreased the binding affinity | restored the decreased affinity | more than 30 fold | C[C@@H](O)[C@H](NC(=O)[C@H](CC(N)=O)NC(=O)[C@@H](NC(=O)[C@H](CCCNC(=N)N)NC(=O)[C@@H]1CCCN1C(=O)[C@H](Cc1ccc(O)cc1)NC(=S)Nc1ccc2c(c1)C(=O)OC21c2ccc(O)cc2Oc2cc(O)ccc21)[C@@H](C)O)C(=O)NCC(=O)N[C@@H](CO)C(=O)NCC(=O)N[C@H](C(=O)N1CCC[C@H]1C(N)=O)[C@@H](C)O [FITC-sCT(22–32)] ({FITC}-YPRTNTGSGTP-NH2; C-terminus assumed) | fully restored the decreased binding affinity | partially restored the decreased affinity |
